Assay results: US7973061B2, “Anaplastic lymphoma kinase modulators and methods of use” (Exelixis, Inc., priority 2004, dated 2011)

Target: T1, ALK (baculovirus expressed human ALK kinase domain F1098-K1410) (Homo sapiens, UniProt Q9UM73)
T1 construct: human ALK kinase domain F1098-K1410; made in house
Assay: biochemical
Details: 1 μM ATP, 4 μM poly-AEKY, 12 nM ALK, 2 hours at ambient temperature; read-out: ALK IC50
Method in brief: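 Inhibitors were tested at 10 concentrations, and IC50 was derived from a sigmoidal fit (Min, Max, Hill slope). Kinase activity was measured as percent ATP left after a 2 h reaction at room temperature, detected by luciferase-luciferin chemiluminescence. The ATP level was set close to KM for the ALK kinase domain F1098-K1410.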

T1 sequence (Q9UM73 1098-1410): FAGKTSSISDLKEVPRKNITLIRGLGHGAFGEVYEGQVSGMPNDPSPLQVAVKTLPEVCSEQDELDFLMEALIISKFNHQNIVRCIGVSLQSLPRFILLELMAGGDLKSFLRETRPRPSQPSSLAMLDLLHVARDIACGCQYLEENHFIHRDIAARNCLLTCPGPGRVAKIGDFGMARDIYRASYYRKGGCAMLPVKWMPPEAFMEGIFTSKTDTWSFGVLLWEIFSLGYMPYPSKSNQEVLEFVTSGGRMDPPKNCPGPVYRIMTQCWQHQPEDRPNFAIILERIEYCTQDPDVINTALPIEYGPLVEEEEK

| IC50 [nM] | Compound |
| --- | --- |
| 50 to 500 | CCN(CCNC(=O)c1csc(CNC(=O)COc2ccc(OC(F)(F)F)cc2)n1)c1cccc(C)c1 [Entry 124, N-{2-[ethyl(3-methylphenyl)amino]ethyl}-2-({[({4-[(trifluoromethyl)oxy]phenyl}oxy)acetyl]amino}methyl)-1,3-thiazole-4-carboxamide] |
| 50 to 500 | O=C(COc1ccc(OC(F)(F)F)cc1)NCc1nc(C(=O)NCc2cccc(C(F)(F)F)c2)cs1 [Entry 156, 2-({[({4-[(trifluoromethyl)oxy]phenyl}oxy)acetyl]amino}methyl)-N-{[3-(trifluoromethyl)phenyl]methyl}-1,3-thiazole-4-carboxamide] |
| 500 to 2000 | O=C(COc1ccc(OC(F)(F)F)cc1)NCc1nc(C(=O)NCc2cccnc2)cs1 [Entry 241, N-(pyridin-3-ylmethyl)-2-({[({4-[(trifluoromethyl)oxy]phenyl}oxy)acetyl]amino}methyl)-1,3-thiazole-4-carboxamide] |
| 500 to 2000 | Cc1ccccc1CNC(=O)c1coc(CNC(=O)COc2ccc(OC(F)(F)F)cc2)n1 [Entry 288, N-[(2-methylphenyl)methyl]-2-({[({4-[(trifluoromethyl)oxy]phenyl}oxy)acetyl]amino}methyl)-1,3-oxazole-4-carboxamide] |
| 50 to 500 | O=C(COc1ccc(OC(F)(F)F)cc1)NCc1nc(C(=O)NCc2ccccc2Cl)cs1 [Entry 32, N-[(2-chlorophenyl)methyl]-2-({[({4-[(trifluoromethyl)oxy]phenyl}oxy)acetyl]amino}methyl)-1,3-thiazole-4-carboxamide] |

The next lines start with the compound.

| Compound | IC50 [nM] |
| --- | --- |
| O=C(COc1ccc(OC(F)(F)F)cc1)NCc1nc(C(=O)NCCN2CCCC2)cs1 [Entry 274, N-(2-pyrrolidin-1-ylethyl)-2-({[({4-[(trifluoromethyl)oxy]phenyl}oxy)acetyl]amino}methyl)-1,3-thiazole-4-carboxamide] | 500 to 2000 |
| NC(=O)[C@@H](Cc1ccccc1)NC(=O)c1csc(CNC(=O)COc2ccc(OC(F)(F)F)cc2)n1 [Entry 70, Nalpha-{[2-({[({4-[(trifluoromethyl)oxy]phenyl}oxy)acetyl]amino}methyl)-1,3-thiazol-4-yl]carbonyl}-D-phenylalaninamide] | 50 to 500 |
| CCCCCCNC(=O)c1csc(CNC(=O)COc2ccc(OC(F)(F)F)cc2)n1 [Entry 113, N-hexyl-2-({[({4-[(trifluoromethyl)oxy]phenyl}oxy)acetyl]amino}methyl)-1,3-thiazole-4-carboxamide] | 50 to 500 |
| CC(C)(C)OC(=O)NC1CCN(C(=O)c2csc(CNC(=O)COc3ccc(OC(F)(F)F)cc3)n2)CC1 [Entry 254, 1,1-dimethylethyl(1-{[2-({[({4-[(trifluoromethyl)oxy]phenyl}oxy)acetyl]amino}methyl)-1,3-thiazol-4-yl]carbonyl}piperidin-4-yl)carbamate] | 500 to 2000 |
| O=C(COc1ccc(OC(F)(F)F)cc1)NCc1nc(C(=O)NCCc2ccccc2Oc2ccccc2)cs1 [Entry 213, N-{2-[2-(phenyloxy)phenyl]ethyl}-2-({[({4-[(trifluoromethyl)oxy]phenyl}oxy)acetyl]amino}methyl)-1,3-thiazole-4-carboxamide] | 50 to 500 |
| O=C(COc1ccc(OC(F)(F)F)cc1)NCc1nc(C(=O)N2CC[C@H]3CCCC[C@@H]3C2)cs1 [Entry 266, N-({4-[(4aR,8aS)-octahydroisoquinolin-2(1H)-ylcarbonyl]-1,3-thiazol-2-yl}methyl)-2-({4-[(trifluoromethyl)oxy]phenyl}oxy)acetamide] | 500 to 2000 |
| O=C(Cc1ccc2ccccc2c1)NCc1nc(C(=O)NCCc2cccc(Cl)c2)cs1 [Entry 117, N-[2-(3-chlorophenyl)ethyl]-2-{[(naphthalen-2-ylacetyl)amino]methyl}-1,3-thiazole-4-carboxamide] | 50 to 500 |
| O=C(COc1ccc(OC(F)(F)F)cc1)NCc1nc(C(=O)NCCCN2CCOCC2)cs1 [Entry 267, N-(3-morpholin-4-ylpropyl)-2-({[({4-[(trifluoromethyl)oxy]phenyl}oxy)acetyl]amino}methyl)-1,3-thiazole-4-carboxamide] | 500 to 2000 |
